This experiment concerns SK-OV-3 multi-cell spheroids, viability. The experiment in a line: Anticancer human tumor SK-OV-3 cell line growth inhibition [IpAb].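 On viability, T/C: viability read after seven days of drug exposure; percent of DMSO vehicle control luminescence.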 To be noted: for viability, T/C: stronger effect = lower value. An excerpt:
Combinatorial screen of targeted agents with ipatasertib and abemaciclib in multi-cell type tumor spheroids
A high-throughput screen of multi-cell type tumor spheroids was designed to identify active combinations of targeted small molecules and ipatasertib or abemaciclib. Complex spheroids include a stromal component modeled by human endothelial cells (HUVEC) and fibroblasts modeled by human mesenchymal stem cells (MSCs). The concentration ranges selected for each drug and investigational agent were based upon clinically achievable concentrations if the clinical Cmax of the agent was known.
Compounds. The drugs and investigational agents: ipatasertib (NSC767898), abemaciclib(NSC768073), selumetinib (NSC741078), trametinib (758246), adavosertib (NSC754352), everolimus (NSC733504), sapanisertib (NSC764658), vemurafenib (NSC761431), venetoclax (NSC766270), copanlisib (NSC809693), apelisib (NSC765974), palbociblib (NSC758247), vemurafenib (NSC761431), dabrafenib (NSC764134), ravoxertinib (NSC781343), BMS-387032 (NSC767048), sotorasib (NSC818433), talazoparib (NSC767125) and afursertib (NSC778305), were obtained from the National Cancer Institute (NCI) Developmental Therapeutics Program Chemical Repository. The FDA-approved anticancer drug set is available from the NCI Developmental Therapeutics Program. […] The stock solutions were prepared in dimethyl sulfoxide (DMSO, Sigma-Aldrich, St. Louis, MO, cat. D2650) at 800-fold the tested concentration and stored at -70 degrees C prior to their use. All drugs and investigational agents were tested over a range starting from a high concentration at or near the clinical Cmax and decreasing in half-log increments. If the clinical Cmax for an agent had not been determined, the highest concentration tested was 10 microM.
NCI60 Cell Culture. NCI60 cell lines were obtained from the NCI Developmental Therapeutics Program Tumor Repository. For each lot of cells, the Repository performed Applied Biosystems AmpFLSTR Identifiler testing with PCR amplification to confirm consistency with the published Identifier STR profile for each cell line. Cells were kept in continuous culture for no more than 20 passages. The optimal seeding densities for each of the cell lines at each time point assessed were determined prior to performing the concentration response studies. Briefly, the NCI60 human tumor lines were grown as monolayers in RPMI 1640 medium supplemented with 10% FBS and 2 mmol/L L-glutamine.
An additional 9 lines were from the NCI60 cell line panel including MDA-MB-231 breast carcinoma, MDA-MB-468 breast carcinoma, MCF7 breast carcinoma, Hs578T breast carcinoma, MALME-3M melanoma, SK-MEL-2 melanoma, SK-OV-3 ovarian carcinoma, DU-145 prostate carcinoma, PC-3 prostate carcinoma, all cell lines along with major genetic alterations are listed on Table 2. Pooled donor human umbilical vein endothelial cells (HUVEC, Lonza, cat. CC-2519) and human mesenchymal stem cells (hMSC, Lonza, cat. PT-2501) were purchased from Lonza (Walkersville, MD).
PDMR cell lines were grown in complete medium (DC medium): Dulbecco's modified Eagle's medium (DMEM)/F12 supplemented with 5% fetal bovine serum (FBS), 2 mM L-glutamine, 100 U/mL penicillin and 100 µg/ml streptomycin, 0.4 µg/ml hydrocortisone, 10 ng/ml epidermal growth factor (EGF) recombinant human protein, 24 µg/mL adenine, and 0.1 mg/mL primocin. During culture from frozen stock vials, PDMR cells were cultured in the same medium containing 10 µM Y-27632 (see Table 3). The PDCs were cultured in complete DMEM/F12 media without 10 microM Y-27632 dihydrochloride for at least two passages prior to the screen. The pooled donor HUVEC and hMSC were cultured in endothelial cell growth medium 2 (PromoCell, Heidelberg, Germany, cat. C-22011) and mesenchymal stem cell growth medium 2 (PromoCell, cat. C-28009), respectively. For all experiments, HUVEC and hMSC were used at passages </=5.
[…]

One may read the viability, T/C as the result in the treated group divided by that in the control group, in per cent. Broadly, the IC50 is the midpoint of a concentration-inhibition curve.

Structures are written as SMILES. Several values for one entry are separate records, joined by “and”; a condition that tells them apart may be missing. Identical values can stand only once. Bounds are passed on as bounds.

For `C=CC(=O)N1CCN(c2nc(=O)n(-c3c(C)ccnc3C(C)C)c3nc(-c4c(O)cccc4F)c(F)cc23)C(C)C1` (configuration not stated), the viability, T/C (compound 0.0316 µM) was 100% and 104%; the viability, T/C (compound 0.1 µM) is 107% and 105%; the viability, T/C (compound 0.316 µM) is 111% and 117%; the viability, T/C (compound 1 µM) is 115% and 130%; the viability, T/C (compound 3.16 µM) is 125% and 120%; the viability, T/C (compound 10 µM) is 77.3% and 82.5%. Besides, where the note is “curve of compound”, the half-inhibitory concentration (IC50) is above 10000 nM.

On to `C=CCn1c(=O)c2cnc(Nc3ccc(N4CCN(C)CC4)cc3)nc2n1-c1cccc(C(C)(C)O)n1`, for which the viability, T/C was 89.6% and 97.2% (compound 0.0316 µM); 64.6% and 59.2% (compound 0.1 µM); 13.3% and 15.5% (compound 0.316 µM); 8.1% and 7.49% (compound 1 µM); 4.13% and 4.87% (compound 3.16 µM); 6.98% and 5.63% (compound 10 µM). The concentration for half-maximal inhibition (IC50) (curve of compound) was 139 nM and 128 nM.

For the molecule `CC(=O)c1c(C)c2cnc(Nc3ccc(N4CCNCC4)cn3)nc2n(C2CCCC2)c1=O`, the viability, T/C is 95.2% and 104% (compound 0.000949 µM); 88.7% and 83.4% (compound 0.003 µM); 75.1% and 80.8% (compound 0.00949 µM); 60.9% and 56.5% (compound 0.03 µM); 56.6% and 55% (compound 0.0949 µM); 54.1% and 49.9% (compound 0.3 µM). Further, the IC50 (curve of compound) is > 300 nM and 253 nM.

Turning to `CC(C)(C)c1cnc(CSc2cnc(NC(=O)C3CCNCC3)s2)o1`, the viability, T/C is 111% and 106% (compound 0.00949 µM); 119% and 113% (compound 0.03 µM); 120% and 117% (compound 0.0949 µM); 14.5% and 23.1% (compound 0.3 µM); 0.98% and 1.33% (compound 0.949 µM); 0.95% and 1.2% (compound 3 µM). Moreover, the concentration for half-maximal inhibition (IC50) (curve of compound) is 189 nM and 212 nM.

With `CC(C)NCC(C(=O)N1CCN(c2ncnc3c2C(C)CC3O)CC1)c1ccc(Cl)cc1` (configuration not stated), the viability, T/C reads like this: (compound 0.1 µM) 69% [middle of 13 runs]; (compound 0.316 µM) 37.8% [middle of 13 runs]; (compound 1 µM) 21.5% [middle of 13 runs]; (compound 3.16 µM) 15.8% [middle of 13 runs]; (compound 10 µM) 10.5% [middle of 12 runs]. The half-maximal inhibitory concentration (IC50) (compound alone, run of 05/18/2021) was 202 nM [middle of 13 runs].

Turning to `CC(C)n1nc(-c2ccc3oc(N)nc3c2)c2c(N)ncnc21`, the viability, T/C is, setting by setting: (compound 0.000316 µM) 90.3% and 86.6%; (compound 0.001 µM) 71.8% and 76.2%; (compound 0.00316 µM) 37.6% and 42.3%; (compound 0.01 µM) 19.2% and 21.4%; (compound 0.0316 µM) 10.8% and 11.2%; (compound 0.1 µM) 7.02% and 7.25%. Moreover, the IC50 (curve of compound) is 2.13 nM and 2.54 nM.

As for `CC1(C)CCC(CN2CCN(c3ccc(C(=O)NS(=O)(=O)c4ccc(NCC5CCOCC5)c([N+](=O)[O-])c4)c(Oc4cnc5[nH]ccc5c4)c3)CC2)=C(c2ccc(Cl)cc2)C1`, the viability, T/C is, setting by setting: (compound 0.0316 µM) 108% and 100%; (compound 0.1 µM) 105% and 103%; (compound 0.316 µM) 104% and 112%; (compound 1 µM) 96.4% and 94.5%; (compound 3.16 µM) 61.8% and 62.1%; (compound 10 µM) 24.5% and 5.23%. Where the note is “curve of compound”, the IC50 was 4560 nM and 4020 nM.

Consider `CCCS(=O)(=O)Nc1ccc(F)c(C(=O)c2c[nH]c3ncc(-c4ccc(Cl)cc4)cc23)c1F`, for which the viability, T/C (compound 0.0316 µM) is 116% and 100%; the viability, T/C (compound 0.1 µM) is 101% and 100%; the viability, T/C (compound 0.316 µM) is 108%; the viability, T/C (compound 1 µM) is 102% and 108%; the viability, T/C (compound 3.16 µM) is 89.4% and 88.4%; the viability, T/C (compound 10 µM) was 33.9% and 49.1%. Moreover, under “curve of compound”, the IC50 was 7130 nM and 9740 nM.

For the molecule `CCN1CCN(Cc2ccc(Nc3ncc(F)c(-c4cc(F)c5nc(C)n(C(C)C)c5c4)n3)nc2)CC1`, the viability, T/C runs as follows: (compound 0.01 µM) 87.1% [middle of 13 runs]; (compound 0.0316 µM) 71.2% [middle of 13 runs]; (compound 0.1 µM) 54.8% [middle of 13 runs]; (compound 0.316 µM) 53.6% [middle of 13 runs]; (compound 1 µM) 43.7% [middle of 13 runs].

Consider `COc1c(OCCCN2CCOCC2)ccc2c3n(c(=NC(=O)c4cnc(N)nc4)nc12)CCN3`, for which the viability, T/C reads like this: (compound 0.00316 µM) 92.7% and 89.1%; (compound 0.01 µM) 44.2% and 46.4%; (compound 0.0316 µM) 11.5% and 12.2%; (compound 0.1 µM) 7.4% and 8.86%; (compound 0.316 µM) 6.39% and 5.98%; (compound 1 µM) 4.6% and 3.86%. Also, the IC50 (curve of compound) is 8.71 nM and 9.06 nM.

As for `Cc1nc(NC(=O)N2CCCC2C(N)=O)sc1-c1ccnc(C(C)(C)C(F)(F)F)c1` (configuration not stated), the viability, T/C is 91.9% and 91.3% (compound 0.0316 µM); 78.5% and 80.2% (compound 0.1 µM); 47.3% and 49% (compound 0.316 µM); 20.7% and 26.9% (compound 1 µM); 10.9% and 10.7% (compound 3.16 µM); 5.21% and 4.93% (compound 10 µM). Further, for the setting “curve of compound”, the IC50 was 291 nM and 337 nM.

As for `Cn1cnc2c(F)c(Nc3ccc(Br)cc3Cl)c(C(=O)NOCCO)cc21`, the viability, T/C (compound 0.00949 µM) is 96% and 97.7%; the viability, T/C (compound 0.03 µM) is 106% and 99.9%; the viability, T/C (compound 0.0949 µM) is 98% and 112%; the viability, T/C (compound 0.3 µM) was 104% and 108%; the viability, T/C (compound 0.949 µM) was 73.2% and 80.4%; the viability, T/C (compound 3 µM) was 39.5% and 29.2%. In addition, the IC50 (curve of compound) was 2100 nM and 1880 nM.

Regarding `Cn1ncc(Cl)c1-c1cc(C(=O)NC(CN)Cc2cccc(F)c2)sc1Cl` (configuration not stated), the viability, T/C is, setting by setting: (compound 0.0316 µM) 73.4% and 80.3%; (compound 0.1 µM) 52.8% and 48.3%; (compound 0.316 µM) 27.5% and 26.4%; (compound 1 µM) 16.1% and 19%; (compound 3.16 µM) 8.76% and 8.97%; (compound 10 µM) 0.31% and 1.17%. In addition, the IC50 (curve of compound) is 106 nM and 96.1 nM.

For `Cn1nccc1Nc1nccc(-c2ccn(C(CO)c3ccc(Cl)c(F)c3)c(=O)c2)n1` (configuration not stated), the viability, T/C was 101% and 98.5% (compound 0.0316 µM); 103% and 108% (compound 0.1 µM); 108% and 116% (compound 0.316 µM); 126% (compound 1 µM); 94.8% and 100% (compound 3.16 µM); 52.2% and 48.9% (compound 10 µM). For the setting “curve of compound”, the IC50 is > 10000 nM and 9730 nM.

On to `Cn1ncnc1[C@H]1c2n[nH]c(=O)c3cc(F)cc(c23)N[C@@H]1c1ccc(F)cc1`, for which the viability, T/C is, setting by setting: (compound 0.000316 µM) 108% and 97.8%; (compound 0.001 µM) 101% and 102%; (compound 0.00316 µM) 101% and 98.3%; (compound 0.01 µM) 98.5% and 88.4%; (compound 0.0316 µM) 87.8% and 86.8%; (compound 0.1 µM) 73.5% and 68.5%. Besides, the IC50 (curve of compound) was above 100 nM.

The values above are taken from PubChem BioAssay AID2060325 (Molecular Pharmacology Branch, DTP, NCI, 2025).
